Measured values: EP0156772A2, “Novel pharmaceutical use for CGRPs” (SANDOZ AG, priority 1984, dated 1985)

Legend:
[1] = Continuous on-line measurement of free calcium concentrations in the extra-corporeal blood circulation; type: in vivo, young rabbits; settings: for calcaemic response: rat CGRP i.v.
Method: • The general scheme for this test is represented in figure 1 attached: • A flow-through electrode system with two Ca2+^-selective liquid membrane electrodes is inserted in the arterio-venous extracor- poreal blood circulatory system of the test animal this being established by means of indwelling catheters connecting the femoral artery with femoral vein.
The blood is pumped from the artery to the vein at a flow rate of 18 ml/h through the system containing Ca2+^-selective electrodes. A second peristaltic pump aspirates the reference solution of electrolytes, which is transported at a flow rate of 0.9 ml/h, passing the compartment of the reference electrode and mixed with the circulating blood at the site of the common electrode. The mixed fluids are then returned into the ciculatory system of the animal.
The Ca2+^-selective electrode allows the potentiometric measurement of the ionized calcium quantitatively. The potential difference between the reference electrode and the Ca2+^-selective electrode is measured differentially relative to the common electrode. The analogue signal of the difference amplifier is processed by a digital voltmeter. Results are obtained in mV and are continously recorded as a function of time. The voltage difference is […].
Following administration of CGRPs i.v. to the test animal, a potent influence on Ca2+ concentration over extended periods of time and up to at least 5 hours is observed at dosages of from about 0.1 to about 25 µg/kg. More importantly results observed indicate that CGRPs exert both a hypo- and hyper-calcaemic effect which is both dose- and time-dependent. […] Specific results obtained following Ix administration of rat CGRP at varying dosages and illustrating activity profile are shown in the accompanying Figs. 2 through 5. • In all cases administration of test substance occurs at time • Fig.2 .: This is a plot for observed change in calcium level [Δ% calcaemia] with time, following i.v. administration of rat CGRP at dosages of from 0.156 µg/kg to 5.0 µg/kg.

[2] = Clinical trial A: human CGRP in active Paget's disease, serum parameters prior and post administration; type: in vivo, volunteer subjects (male and female)
Method: Human CGRP is employed as trial substance and is tested by administration in accordance with the following regimens.
The following parameters are measured prior and post-administration: circulating calcium serum levels: alkaline phosphatase: hydroxyproline: bone specific protein levels.

[3] = Clinical trial B: human CGRP s.c. accompanied by salmon or human calcitonin; type: in vivo, volunteer subjects (male and female); settings: human CGRP s.c. 10 to 200 µg accompanied by salmon or human calcitonin 5 to 100 I.U. (or M.R.C) s.c. or i.m.
From the text: The methodology of clinical trial A is repeated, with administration of human CGRP in accordance with regimen 1.3. In this trial however administration is accompanied by administration of salmon or human calcitonin at dosages of from 5 to 100 I.U. (or M.R.C), [e.g. at dosages of 5, 10, 25, 50 or 100 I.U. (or M.R.C.)] administered by injection either s.c. or i.m.

SMILES	observed change in calcium level, course of response ([1]; Fig. 6, i.v., 2.5 µg/kg, groups of 6 animals)	circulating serum calcium levels ([2]; i.v. 0.1 to 20 µg, i.v. infusion 10 to 100 µg, s.c. 10 to 200 µg, intranasal 10 to 500 µg, or s.c. daily for 5 to 7 days)	alkaline phosphatase levels ([2]; same regimens)	hydroxyproline levels ([2]; same regimens)	bone specific proteins ([2]; same regimens, in particular proteins reflecting bone metabolic turn over)	influence on measured serum parameters [3]	reduction of circulating serum calcium levels ([3]; compared with salmon calcitonin alone)	AUCS (areas under curve) ([1]; Fig. 2, i.v., 0.156 µg/kg to 5.0 µg/kg, calcium level versus time)	observed change in calcium level [Δ% calcaemia] ([1]; Fig. 2, i.v., dosages of from 0.156 µg/kg to 5.0 µg/kg)	observed change in calcium level after the initial hypocalcaemic response ([1]; Fig. 5, 10 pg/kg i.v.)	hypocalcaemic response ([1]; Fig. 5, 10 pg/kg i.v., compared with untreated control)	duration of hypercalcaemic response following initial administration ([1]; Fig. 5, 10 pg/kg i.v., printed 'up to at least 5 hours')	observed change in calcium level ([1]; Figs 3 to 4, i.v., 2.5 and 5.0 µg/kg, groups of four test animals, compared with untreated controls)	calcaemic response [1]	calcaemic response ([1]; dosages in excess of 5 µg/kg)
CC(C)C[C@H](NC(=O)CNC(=O)[C@H](C)NC(=O)[C@H](CC(C)C)NC(=O)[C@H](CCCNC(=N)N)NC(=O)[C@H](Cc1c[nH]cn1)NC(=O)[C@@H](NC(=O)[C@@H](NC(=O)[C@@H]1CSSC[C@H](NC(=O)[C@H](C)N)C(=O)N[C@@H](CC(=O)O)C(=O)N[C@@H]([C@@H](C)O)C(=O)N[C@@H](C)C(=O)N[C@@H]([C@@H](C)O)C(=O)N1)C(C)C)[C@@H](C)O)C(=O)N[C@@H](CC(C)C)C(=O)N[C@@H](CO)C(=O)N[C@@H](CCCNC(=N)N)C(=O)N[C@@H](CO)C(=O)NCC(=O)NCC(=O)N[C@H](C(=O)N[C@H](C(=O)N[C@@H](CCCCN)C(=O)N[C@@H](CC(N)=O)C(=O)N[C@@H](CC(N)=O)C(=O)N[C@@H](Cc1ccccc1)C(=O)N[C@H](C(=O)N1CCC[C@H]1C(=O)N[C@H](C(=O)N[C@@H](CC(N)=O)C(=O)N[C@H](C(=O)NCC(=O)N[C@@H](CO)C(=O)N[C@@H](CCCCN)C(=O)N[C@@H](C)C(=O)N[C@@H](Cc1ccccc1)C(N)=O)C(C)C)[C@@H](C)O)C(C)C)C(C)C)C(C)C [human CGRP]	parallels that recorded for rat CGRP in Fig. 5	significant reduction	concomitant reduction	concomitant reduction	marked reduction	observed in this trial as in trial A	superior to that observed on administration of salmon calcitonin alone								
CC(C)C[C@H](NC(=O)CNC(=O)[C@H](C)NC(=O)[C@H](CC(C)C)NC(=O)[C@H](CCCNC(=N)N)NC(=O)[C@H](Cc1c[nH]cn1)NC(=O)[C@@H](NC(=O)[C@@H](NC(=O)[C@@H]1CSSC[C@H](NC(=O)[C@@H](N)CO)C(=O)N[C@@H](CC(N)=O)C(=O)N[C@@H]([C@@H](C)O)C(=O)N[C@@H](C)C(=O)N[C@@H]([C@@H](C)O)C(=O)N1)C(C)C)[C@@H](C)O)C(=O)N[C@@H](CC(C)C)C(=O)N[C@@H](CO)C(=O)N[C@@H](CCCNC(=N)N)C(=O)N[C@@H](CO)C(=O)NCC(=O)NCC(=O)N[C@H](C(=O)N[C@H](C(=O)N[C@@H](CCCCN)C(=O)N[C@@H](CC(=O)O)C(=O)N[C@@H](CC(N)=O)C(=O)N[C@@H](Cc1ccccc1)C(=O)N[C@H](C(=O)N1CCC[C@H]1C(=O)N[C@H](C(=O)N[C@@H](CC(N)=O)C(=O)N[C@H](C(=O)NCC(=O)N[C@@H](CO)C(=O)N[C@@H](CCC(=O)O)C(=O)N[C@@H](C)C(=O)N[C@@H](Cc1ccccc1)C(N)=O)C(C)C)[C@@H](C)O)C(C)C)C(C)C)C(C)C [rat CGRP]								statistically linear	decrease (hypocalcaemia)	reverse hypercalcaemic response which continues very strongly	though strongly marked, is transitory only	at least 5 hours	hypocalcaemia is again observed	primarily hypo- calcaemic response	primarily hyper-calcaemic response preceeded by a transient hypo-calcaemic response at the lower end of the dosage range
